Assays:
Format in all cases: in vivo
[1] = test system: kochia (Kochia scoparia); assay: Test A preemergence, directed soil spray, visual injury rating; details: 0 is no effect, 100 is complete control
How it was run: (§1)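 Injury ratings, 0 (no effect) to 100 (complete control), were scored visually versus untreated plants roughly 10 d after treatment under greenhouse conditions. Treatments used surfactant-containing solvent formulations, sprayed onto soil preemergence or onto one- to two-leaf seedlings (2-10 cm) postemergence, grown in a loam-sand mix.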

[2] = test system: ryegrass, It. (Italian ryegrass, Lolium multiflorum); assay: as above; details: 0 is no effect, 100 is complete control
How it was run: as §1

[3] = test system: ragweed (common ragweed, Ambrosia elatior); assay: as above; details: 0 is no effect, 100 is complete control
How it was run: as §1

[4] = test system: foxtail, giant (giant foxtail, Setaria faberii); assay: as above; details: 0 is no effect, 100 is complete control
How it was run: as §1

[5] = test system: pigweed (Amaranthus retroflexus); assay: as above; details: 0 is no effect, 100 is complete control
How it was run: as §1

[6] = test system: barnyardgrass (Echinochloa crus-galli); assay: as above; details: 0 is no effect, 100 is complete control
How it was run: as §1

[7] = test system: ducksalad (Heteranthera limosa); assay: Test B flooded paddy test, visual rating; details: Flood, 250 g ai/ha, applied to paddy water, rated after 13 to 15 d
How it was run: (§2)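 Ratings use a 0-100 visual scale, where 100 is complete control, and compare treated plants with controls after 13 to 15 d of greenhouse growth. Compound went straight into paddy water kept 3 cm over the soil surface, applied to seedlings at the 2-leaf stage.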

[8] = test system: sedge, umbrella (small-flower umbrella sedge, Cyperus difformis); assay: Test B flooded paddy test, visual rating; details: Flood, 250 g ai/ha, applied to paddy water, rated after 13 to 15 d
How it was run: as §2

[9] = test system: rice (Oryza sativa); assay: Test B flooded paddy test, visual rating; details: Flood, 250 g ai/ha, applied to paddy water, rated after 13 to 15 d
How it was run: as §2

[10] = test system: barnyardgrass (Echinochloa crus-galli); assay: Test B flooded paddy test, visual rating; details: Flood, 250 g ai/ha, applied to paddy water, rated after 13 to 15 d
How it was run: as §2

[11] = test system: wheat (Triticum aestivum); assay: Test A postemergence application, visual injury rating; details: 0 to 100 scale, 0 no effect, 100 complete control
How it was run: as §1

[12] = test system: galium (catchweed bedstraw, Galium aparine); assay: as above; details: 0 to 100 scale, 0 no effect, 100 complete control
How it was run: as §1

[13] = test system: kochia (Kochia scoparia); assay: as above; details: 0 to 100 scale, 0 no effect, 100 complete control
How it was run: as §1

[14] = test system: ryegrass, It. (Italian ryegrass, Lolium multiflorum); assay: as above; details: 0 to 100 scale, 0 no effect, 100 complete control
How it was run: as §1

[15] = test system: corn (Zea mays); assay: as above; details: 0 to 100 scale, 0 no effect, 100 complete control
How it was run: as §1

[16] = test system: ragweed (common ragweed, Ambrosia elatior); assay: as above; details: 0 to 100 scale, 0 no effect, 100 complete control
How it was run: as §1

[17] = test system: foxtail, giant (giant foxtail, Setaria faberii); assay: as above; details: 0 to 100 scale, 0 no effect, 100 complete control
How it was run: as §1

[18] = test system: pigweed (Amaranthus retroflexus); assay: as above; details: 0 to 100 scale, 0 no effect, 100 complete control
How it was run: as §1

[19] = test system: blackgrass (Alopecurus myosuroides); assay: as above; details: 0 to 100 scale, 0 no effect, 100 complete control
How it was run: as §1

[20] = test system: barnyardgrass (Echinochloa crus-galli); assay: as above; details: 0 to 100 scale, 0 no effect, 100 complete control
How it was run: as §1

| SMILES | Plant response rating (0 to 100 scale), Kochia ([1]; 31 g ai/ha) | Plant response rating (0 to 100 scale), Kochia ([1]; 125 g ai/ha) | Plant response rating (0 to 100 scale), Ryegrass, It. ([2]; 31 g ai/ha) | Plant response rating (0 to 100 scale), Ryegrass, It. ([2]; 125 g ai/ha) | Plant response rating (0 to 100 scale), Ragweed ([3]; 31 g ai/ha) | Plant response rating (0 to 100 scale), Ragweed ([3]; 125 g ai/ha) | Plant response rating (0 to 100 scale), Foxtail, Giant ([4]; 31 g ai/ha) | Plant response rating (0 to 100 scale), Foxtail, Giant ([4]; 125 g ai/ha) | Plant response rating (0 to 100 scale), Pigweed ([5]; 31 g ai/ha) | Plant response rating (0 to 100 scale), Pigweed ([5]; 125 g ai/ha) | Plant response rating (0 to 100 scale), Barnyardgrass ([6]; 31 g ai/ha) | Plant response rating (0 to 100 scale), Barnyardgrass ([6]; 125 g ai/ha) | Ducksalad plant response rating (0 to 100 scale, 0 is no effect, 100 is complete control) [7] | Sedge, Umbrella plant response rating (0 to 100 scale, 0 is no effect, 100 is complete control) [8] | Rice plant response rating (0 to 100 scale, 0 is no effect, 100 is complete control) [9] | Barnyardgrass plant response rating (0 to 100 scale, 0 is no effect, 100 is complete control) [10] | Wheat plant response rating ([11]; 31 g ai/ha) | Wheat plant response rating ([11]; 125 g ai/ha) | Galium plant response rating ([12]; 31 g ai/ha) | Galium plant response rating ([12]; 125 g ai/ha) | also measured |
| --- | --- | --- | --- | --- | --- | --- | --- | --- | --- | --- | --- | --- | --- | --- | --- | --- | --- | --- | --- | --- | --- |
| Cc1cc2c(Cl)ccc(-c3c(O)c(C)nn(C)c3=O)c2o1 [Compound 43] | 0 | 0 | 60 | 80 | 30 | 30 | 10 | 40 | 0 | 0 | 10 | 30 | 40 | 35 | 0 | 0 | 0 | 10 | 70 | 80 | Kochia plant response rating ([13]; 31 g ai/ha): 0; Kochia plant response rating ([13]; 125 g ai/ha): 0; Ryegrass, It. plant response rating ([14]; 31 g ai/ha): 50; Ryegrass, It. plant response rating ([14]; 125 g ai/ha): 80; Corn plant response rating ([15]; 31 g ai/ha): 0; Corn plant response rating ([15]; 125 g ai/ha): 0; Ragweed plant response rating ([16]; 31 g ai/ha): 0; Ragweed plant response rating ([16]; 125 g ai/ha): 20; Foxtail, Giant plant response rating ([17]; 31 g ai/ha): 0; Foxtail, Giant plant response rating ([17]; 125 g ai/ha): 0; Pigweed plant response rating ([18]; 31 g ai/ha): 0; Pigweed plant response rating ([18]; 125 g ai/ha): 0; Blackgrass plant response rating ([19]; 31 g ai/ha): 0; Blackgrass plant response rating ([19]; 125 g ai/ha): 50; Barnyardgrass plant response rating ([20]; 31 g ai/ha): 0; Barnyardgrass plant response rating ([20]; 125 g ai/ha): 10 |
| Cc1cc2c(-c3c(OC(=O)c4ccccc4)c(C)nn(C)c3=O)ccc(Cl)c2o1 [Compound 44] | 0 | 0 | 0 | 20 | 0 | 0 | 0 | 0 | 0 | 0 | 0 | 0 | 0 | 0 | 0 | 0 | 0 | 0 | 0 | 0 | Kochia plant response rating ([13]; 31 g ai/ha): 0; Kochia plant response rating ([13]; 125 g ai/ha): 0; Ryegrass, It. plant response rating ([14]; 31 g ai/ha): 0; Ryegrass, It. plant response rating ([14]; 125 g ai/ha): 0; Corn plant response rating ([15]; 31 g ai/ha): 0; Corn plant response rating ([15]; 125 g ai/ha): 0; Ragweed plant response rating ([16]; 31 g ai/ha): 0; Ragweed plant response rating ([16]; 125 g ai/ha): 0; Foxtail, Giant plant response rating ([17]; 31 g ai/ha): 0; Foxtail, Giant plant response rating ([17]; 125 g ai/ha): 0; Pigweed plant response rating ([18]; 31 g ai/ha): 0; Pigweed plant response rating ([18]; 125 g ai/ha): 0; Blackgrass plant response rating ([19]; 31 g ai/ha): 0; Blackgrass plant response rating ([19]; 125 g ai/ha): 0; Barnyardgrass plant response rating ([20]; 31 g ai/ha): 0; Barnyardgrass plant response rating ([20]; 125 g ai/ha): 0 |
| Cc1cc2c(-c3c(O)c(C)nn(C)c3=O)ccc(Cl)c2o1 [Compound 45] | 0 | 0 | 0 | 30 | 0 | 10 | 0 | 0 | 0 | 50 | 0 | 0 | 30 | 50 | 0 | 0 | 0 | 0 | 20 | 70 | Kochia plant response rating ([13]; 31 g ai/ha): 0; Kochia plant response rating ([13]; 125 g ai/ha): 0; Ryegrass, It. plant response rating ([14]; 31 g ai/ha): 20; Ryegrass, It. plant response rating ([14]; 125 g ai/ha): 60; Corn plant response rating ([15]; 31 g ai/ha): 0; Corn plant response rating ([15]; 125 g ai/ha): 0; Ragweed plant response rating ([16]; 31 g ai/ha): 0; Ragweed plant response rating ([16]; 125 g ai/ha): 0; Foxtail, Giant plant response rating ([17]; 31 g ai/ha): 0; Foxtail, Giant plant response rating ([17]; 125 g ai/ha): 0; Pigweed plant response rating ([18]; 31 g ai/ha): 0; Pigweed plant response rating ([18]; 125 g ai/ha): 10; Blackgrass plant response rating ([19]; 31 g ai/ha): 0; Blackgrass plant response rating ([19]; 125 g ai/ha): 0; Barnyardgrass plant response rating ([20]; 31 g ai/ha): 0; Barnyardgrass plant response rating ([20]; 125 g ai/ha): 0 |
| Cc1ccc2sc(Cl)cc2c1-c1c(O)c(C)nn(C)c1=O [Compound 46] | 50 | 80 | 90 | 100 | 80 | 80 | 30 | 80 | 100 | 100 | 0 | 50 | 0 | 70 | 0 | 0 | 0 | 20 | 90 | 90 | Kochia plant response rating ([13]; 31 g ai/ha): 60; Kochia plant response rating ([13]; 125 g ai/ha): 90; Ryegrass, It. plant response rating ([14]; 31 g ai/ha): 90; Ryegrass, It. plant response rating ([14]; 125 g ai/ha): 100; Corn plant response rating ([15]; 31 g ai/ha): 0; Corn plant response rating ([15]; 125 g ai/ha): 20; Ragweed plant response rating ([16]; 31 g ai/ha): 90; Ragweed plant response rating ([16]; 125 g ai/ha): 100; Foxtail, Giant plant response rating ([17]; 31 g ai/ha): 50; Foxtail, Giant plant response rating ([17]; 125 g ai/ha): 90; Pigweed plant response rating ([18]; 31 g ai/ha): 90; Pigweed plant response rating ([18]; 125 g ai/ha): 90; Blackgrass plant response rating ([19]; 31 g ai/ha): 40; Blackgrass plant response rating ([19]; 125 g ai/ha): 70; Barnyardgrass plant response rating ([20]; 31 g ai/ha): 10; Barnyardgrass plant response rating ([20]; 125 g ai/ha): 30 |
| COC(=O)Oc1c(C)nn(C)c(=O)c1-c1ccc(Cl)c2ccsc12 [Compound 50] | 0 | 20 | 60 | 80 | 0 | 20 | 0 | 10 | 0 | 100 | 0 | 10 | 0 | 0 | 0 | 0 | 0 | 0 | 100 | 100 | Kochia plant response rating ([13]; 31 g ai/ha): 40; Kochia plant response rating ([13]; 125 g ai/ha): 90; Ryegrass, It. plant response rating ([14]; 31 g ai/ha): 60; Ryegrass, It. plant response rating ([14]; 125 g ai/ha): 90; Corn plant response rating ([15]; 31 g ai/ha): 0; Corn plant response rating ([15]; 125 g ai/ha): 0; Ragweed plant response rating ([16]; 31 g ai/ha): 10; Ragweed plant response rating ([16]; 125 g ai/ha): 70; Foxtail, Giant plant response rating ([17]; 31 g ai/ha): 0; Foxtail, Giant plant response rating ([17]; 125 g ai/ha): 0; Pigweed plant response rating ([18]; 31 g ai/ha): 60; Pigweed plant response rating ([18]; 125 g ai/ha): 70; Blackgrass plant response rating ([19]; 31 g ai/ha): 0; Blackgrass plant response rating ([19]; 125 g ai/ha): 10; Barnyardgrass plant response rating ([20]; 31 g ai/ha): 0; Barnyardgrass plant response rating ([20]; 125 g ai/ha): 10 |

Source: patent US10750743B2, “Pyridazinone herbicides” (E.I. DU PONT DE NEMOURS AND COMPANY, priority 2015, dated 2020)
